Molecular target: Escherichia coli DNA gyrase A/B tetramer (Escherichia coli (strain K12), UniProt P0AES4+P0AES6)
Assay: DNA gyrase supercoiling activity fluorescence polarisation assay
Format: biochemical
Settings: 5 nM enzyme, relaxed plasmid, 0.3 mM ATP, ambient temperature; read-out: E. coli DNA gyrase supercoiling IC50
Procedure, shortened: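 Supercoiling reactions quenched with 40 nM 5′-BODIPY-FL triplex-forming oligonucleotide probe in pH 3.5 NaCl/sodium acetate buffer; after 60 min, fluorescence anisotropy read (ex 485/em 535 nm). IC50 by nonlinear regression, normalised to 0.8% DMSO (100% activity) and 5 μM ciprofloxacin (0% activity).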

| SMILES | IC50 [µM] |
| --- | --- |
| Cc1noc2c(F)c3c(cc12)CC1(C(=O)NC(=O)NC1=O)[C@H]1[C@H](C)O[C@H](C(F)(F)F)CN31 (relative stereo) [Example 149, (2S,4S,4aS)-rel-11-fluoro-4,8-dimethyl-2-(trifluoromethyl)-1,2,4,4a-tetrahydro-2′H,6H-spiro[isoxazolo[4,5-g][1,4]oxazino[4,3-a]quinoline-5,5′-pyrimidine]-2′,4′,6′(1′H,3′H)-trione] | 4.4 |
| CC(=O)NC1CN(C(=O)c2noc3c(F)c4c(cc23)CC2(C(=O)NC(=O)NC2=O)[C@H]2[C@H](C)O[C@H](C)CN42)C1 (relative stereo) [Example 160, N-(1-((2R,4S,4aS)-rel-11-fluoro-2,4-dimethyl-2′,4′,6′-trioxo-2,2′,3′,4,4a,4′,6,6′-octahydro-1H,1′H-spiro[isoxazolo[4,5-g][1,4]oxazino[4,3-a]quinoline-5,5′-pyrimidine]-8-ylcarbonyl)azetidin-3-yl)acetamide] | 1 |
| C[C@@H]1CN2c3c(cc4c(-c5ccco5)noc4c3F)CC3(C(=O)NC(=O)NC3=O)[C@H]2[C@H](C)O1 (relative stereo) [Example 97, (2R,4S,4aS)-rel-11-fluoro-8-(furan-2-yl)-2,4-dimethyl-2,4,4a,6-tetrahydro-1H,1′H-spiro[isoxazolo[4,5-g][1,4]oxazino[4,3-a]quinoline-5,5′-pyrimidine]-2′,4′,6′(3′H)-trione] | 0.7 |
| C[C@@H]1CN2c3c(cc4c(-c5cnc(N6CCOCC6)cn5)noc4c3F)CC3(C(=O)NC(=O)NC3=O)[C@@H]2[C@@H](C)O1 [Example 166(a), (2R,4R,4aR)-11-fluoro-2,4-dimethyl-8-(5-morpholinopyrazin-2-yl)-2,4,4a,6-tetrahydro-1H,1′H-spiro[isoxazolo[4,5-g][1,4]oxazino[4,3-a]quinoline-5,5′-pyrimidine]-2′,4′,6′(3′H)-trione] | 83 |
| C[C@@H]1CN2c3c(cc4c(-n5ccnn5)noc4c3F)CC3(C(=O)NC(=O)NC3=O)[C@H]2[C@H](C)O1 (relative stereo) [Example 57, (2R,4S,4aS)-rel-11-fluoro-2,4-dimethyl-8-(1H-1,2,3-triazol-1-yl)-1,2,4,4a-tetrahydro-2′H,6H-spiro[1,4-oxazino[4,3-a][1,2]oxazolo[4,5-g]quinoline-5,5′-pyrimidine]-2′,4′,6′(1′H,3′H)-trione] | 1.5 |
| C[C@@H]1CN2c3c(cc4c(C(F)F)noc4c3F)CC3(C(=O)NC(=O)NC3=O)[C@H]2[C@H](C)O1 [Example 93(b), (2R,4S,4aS)-8-(difluoromethyl)-11-fluoro-2,4-dimethyl-2,4,4a,6-tetrahydro-1H,1′H-spiro[isoxazolo[4,5-g][1,4]oxazino[4,3-a]quinoline-5,5′-pyrimidine]-2′,4′,6′(3′H)-trione] | 0.4 |
| C[C@@H]1CN2c3c(cc4c(-c5ccccn5)noc4c3F)CC3(C(=O)NC(=O)NC3=O)[C@H]2[C@H](C)O1 (relative stereo) [Example 5, (2R,4S,4aS)-rel-11-fluoro-2,4-dimethyl-8-pyridin-2-yl-1,2,4,4a-tetrahydro-2′H,6H-spiro[isoxazolo[4,5-g][1,4]oxazino[4,3-a]quinoline-5,5′-pyrimidine]-2′,4′,6′(1′H,3′H)-trione] | 0.2 |
| C[C@@H]1CN2c3c(nc4c(C(=O)NCc5ccccc5)noc4c3Cl)CC3(C(=O)NC(=O)NC3=O)[C@H]2[C@H](C)O1 (relative stereo) [Example 131, (2R,4S,4aS)-rel-N-benzyl-11-chloro-2,4-dimethyl-2′,4′,6′-trioxo-2,2′,3′,4,4a,4′,6,6′-octahydro-1H,1′H-spiro[isoxazolo[4,5-g][1,4]oxazino[4,3-a][1,5]naphthyridine-5,5′-pyrimidine]-8-carboxamide] | 4.4 |

— patent publication US9040528B2, “Chemical compounds 542” (AstraZeneca AB, priority 2008, dated 2015)
